Assay results published in US20070259087A1, “Antimicrobial Peptides” (Novozymes A/S, priority 2003, published 2007).

System: E. coli TOP10
Format: cell-based
Conditions: end point OD450 after 14 hours, 37 degrees Celsius
Experimental: A range of synthetic antimicrobial polypeptides were expressed in E. coli TOP10 (Invitrogen) using arabinose as inducer, as disclosed in Example 1 of International patent application WO 00/73433 (with minor modifications). […] Briefly, fresh overnight cultures grown in RM medium containing 0.2% glucose and ampicillin (100 μg/ml) were diluted 300-fold into 150 microliter of RM containing 0.2% glycerol and ampicillin (100 μg/ml) and different concentrations of arabinose (0, 0.01% or 0.1%) in a microtiter plate and incubated at 37 degrees Celsius with vigorous shaking. The growth curve was monitored by measuring OD450 using a Bioscreen C Microbiology reader (Thermo Electron Corporation) at intervals of 30 minutes for 14 hours (see Invitrogen protocol of the pBAD/gill A, B and C vectors catalogue nos. V450-01 for buffer and media composition). The percentage of growth inhibition was calculated as the end point OD measurement of each sample divided by the end point OD measurement obtained from cells containing the control vector and multiplied by 100. The formula is the following: [formula] where “blank OD” corresponds to the OD of an empty well.

Sequence | Growth inhibition using 0.01% arabinose (%) | Growth inhibition using 0.1% arabinose (%)
GWLRKIGKAVKKVVKRVL (Synthetic antimicrobial peptide) [SEQ ID NO:34] | 90% | 99%
GLLNKLKKNVKNIVQHILRWL (Synthetic antimicrobial peptide) [SEQ ID NO:40] | 77% | 95%
GLFSILKREIKRTFSNFYRWL (GLFSILKREIKRTFSMFYRWL; Synthetic antimicrobial peptide) [SEQ ID NO:41] | 86% | 99%
GLWRKLKKALKRAVQGVR (Synthetic antimicrobial peptide) [SEQ ID NO:5] | 91% | 96%
GLLGKLKRKIKKALEGIR (Synthetic antimicrobial peptide) [SEQ ID NO:35] | 96% | 99%
GLLRILKKKAKKALQHIL (Synthetic antimicrobial peptide) [SEQ ID NO:37] | 86% | 93%
GLLSKLKKTVKRVVKHVR (Synthetic antimicrobial peptide) [SEQ ID NO:19] | 84% | 99%
GLWNMLKKKLKKIAQGIR (Synthetic antimicrobial peptide) [SEQ ID NO:15] | 73% | 88%
GWFSKLKKTAKKLLQRVL (Synthetic antimicrobial peptide) [SEQ ID NO:7] | 76% | 82%
GLFSIIMRAVKKVWQRVR (Synthetic antimicrobial peptide) [SEQ ID NO:9] | 97% | 100%
GLLNKLKRALKKVVKHVR (Synthetic antimicrobial peptide) [SEQ ID NO:33] | 84% | 94%
GLFTKLRKATKRILEHVL (Synthetic antimicrobial peptide) [SEQ ID NO:3] | 81% | 87%
GILSKLKKAIKRILQDVLRWL (Synthetic antimicrobial peptide) [SEQ ID NO:43] | 82% | 99%
GLLRKLRKEVKKVLSIFFRWL (Synthetic antimicrobial peptide) [SEQ ID NO:39] | 97% | 99%
GMLSKLGITIKIAVKHIR (Synthetic antimicrobial peptide) [SEQ ID NO:6] | 98% | 100%
GLLSKLKRKIKKAVKHIL (Synthetic antimicrobial peptide) [SEQ ID NO:30] | 82% | 95%
GLLSKLGKAVKNILEDVV (Synthetic antimicrobial peptide) [SEQ ID NO:28] | 98% | 100%
GLLSMLGKAVKRAVQHVL (Synthetic antimicrobial peptide) [SEQ ID NO:26] | 97% | 100%
GWLKILEKAAKITVKNVL (Synthetic antimicrobial peptide) [SEQ ID NO:36] | 98% | 97%
GLLGKIRKEGRNFWRVFRRWL (GLLGKIRKEGRMFWRVFRRWL; Synthetic antimicrobial peptide) [SEQ ID NO:38] | 86% | 92%
GILSMLERRWSMYCSIFCRWL (Synthetic antimicrobial peptide) [SEQ ID NO:45] | 98% | 100%
GILSKLKKKAKNAVKMFCRWL (Synthetic antimicrobial peptide) [SEQ ID NO:46] | 92% | 96%

Sequence | Growth inhibition using 0.01% arabinose (%) | Growth inhibition using 0.1% arabinose (%)
GLLSKIRKKLKRVLQSIR (Synthetic antimicrobial peptide) [SEQ ID NO:20] | 77% | 94%
GLWRKLRRKAKKVLQHIL (Synthetic antimicrobial peptide) [SEQ ID NO:13] | 94% | 100%
GLLRKLGKKIKRVVKHVG (Synthetic antimicrobial peptide) [SEQ ID NO:10] | 98% | 100%
GWFNKLKTKIKKTLKHVL (Synthetic antimicrobial peptide) [SEQ ID NO:11] | 72% | 90%
GLFRKLKKTIKRVLKHVP (Synthetic antimicrobial peptide) [SEQ ID NO:31] | 86% | 96%
GLLKTIRKKIKRVLKHVR (Synthetic antimicrobial peptide) [SEQ ID NO:4] | 96% | 99%
GLFRKLRKKVKKVLKHVL (Synthetic antimicrobial peptide) [SEQ ID NO:23] | 91% | 98%
GLFSLLRKTIKKVLQHIR (Synthetic antimicrobial peptide) [SEQ ID NO:32] | 91% | 99%
GLLNKIKKTIKRAVQHVL (Synthetic antimicrobial peptide) [SEQ ID NO:18] | 76% | 92%
GLWSSIKKEAKHALKHIL (Synthetic antimicrobial peptide) [SEQ ID NO:29] | 55% | 81%
GLLSKIMKAVKRTLKHIL (Synthetic antimicrobial peptide) [SEQ ID NO:16] | 89% | 99%
GMLRKLKRKVKRTLQHVL (Synthetic antimicrobial peptide) [SEQ ID NO:8] | 78% | 88%
GLLSRLRRATKIILKGIR (Synthetic antimicrobial peptide) [SEQ ID NO:14] | 72% | 88%
GLLRKIKMKAKKVLKNIL (Synthetic antimicrobial peptide) [SEQ ID NO:22] | 72% | 83%
GLLGKLKKELKNVLEHIYRWL (Synthetic antimicrobial peptide) [SEQ ID NO:42] | 75% | 93%
GLLSILKRKSKRILKHIL (Synthetic antimicrobial peptide) [SEQ ID NO:24] | 88% | 96%
GILNIIGRAVKTVLESIR (Synthetic antimicrobial peptide) [SEQ ID NO:25] | 97% | 99%
GLVTLLKKAMKNALEDVL (Synthetic antimicrobial peptide) [SEQ ID NO:21] | 98% | 99%
GMLKKLKKKTKRAFSVFCRWL (Synthetic antimicrobial peptide) [SEQ ID NO:44] | 96% | 98%
GILNKLRKKLKRVLQRIL (Synthetic antimicrobial peptide) [SEQ ID NO:27] | 84% | 97%
GLLEKLRKALKRILQHVL (Synthetic antimicrobial peptide) [SEQ ID NO:12] | 91% | 97%
GMLIKLEMEAKKVVKNVL (Synthetic antimicrobial peptide) [SEQ ID NO:17] | 96% | 99%
